Experiment [1] concerns the target T1, Casein kinase II subunit alpha (Homo sapiens, UniProt P68400). In words: Inhibition of CK2alpha (unknown origin).
Experiment [2] concerns the target T1, Casein kinase II subunit alpha. Put plainly: Inhibition of CK2alpha (unknown origin) using RRRADDSDDDDD as substrate in presence of [gamma33P]-ATP by autoradiography.
The target of experiment [3] is Casein kinase I isoform alpha (Homo sapiens, UniProt P48729). Put plainly: Inhibition of CK1alpha (unknown origin).
Casein kinase I isoform alpha, sequence (P48729 whole entry, canonical isoform): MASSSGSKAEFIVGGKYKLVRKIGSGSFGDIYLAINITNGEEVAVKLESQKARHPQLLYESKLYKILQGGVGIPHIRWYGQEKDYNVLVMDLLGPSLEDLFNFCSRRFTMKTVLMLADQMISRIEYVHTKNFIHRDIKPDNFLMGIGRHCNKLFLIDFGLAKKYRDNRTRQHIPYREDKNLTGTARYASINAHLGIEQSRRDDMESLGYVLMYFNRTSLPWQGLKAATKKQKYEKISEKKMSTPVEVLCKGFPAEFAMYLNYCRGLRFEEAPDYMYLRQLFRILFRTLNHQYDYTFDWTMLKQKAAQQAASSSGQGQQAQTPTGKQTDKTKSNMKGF
Experiment [4] deals with Casein kinase I delta/epsilon (Homo sapiens, UniProt P48730+P49674). In words: Inhibition of CK1delta/CK1epsilon (unknown origin). Format: protein-complex assay.
Casein kinase I delta/epsilon, sequence (P48730 whole entry): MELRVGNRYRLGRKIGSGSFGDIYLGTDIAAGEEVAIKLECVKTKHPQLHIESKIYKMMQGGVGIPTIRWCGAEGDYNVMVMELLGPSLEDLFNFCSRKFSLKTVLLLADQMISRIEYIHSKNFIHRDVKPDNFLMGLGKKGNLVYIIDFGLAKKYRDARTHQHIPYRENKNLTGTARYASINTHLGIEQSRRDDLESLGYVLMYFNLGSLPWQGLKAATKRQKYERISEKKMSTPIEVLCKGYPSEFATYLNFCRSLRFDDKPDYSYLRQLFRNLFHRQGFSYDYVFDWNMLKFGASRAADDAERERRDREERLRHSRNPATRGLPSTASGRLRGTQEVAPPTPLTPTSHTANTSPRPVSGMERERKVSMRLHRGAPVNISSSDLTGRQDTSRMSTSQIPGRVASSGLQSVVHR
Casein kinase I delta/epsilon, sequence (P49674 whole entry): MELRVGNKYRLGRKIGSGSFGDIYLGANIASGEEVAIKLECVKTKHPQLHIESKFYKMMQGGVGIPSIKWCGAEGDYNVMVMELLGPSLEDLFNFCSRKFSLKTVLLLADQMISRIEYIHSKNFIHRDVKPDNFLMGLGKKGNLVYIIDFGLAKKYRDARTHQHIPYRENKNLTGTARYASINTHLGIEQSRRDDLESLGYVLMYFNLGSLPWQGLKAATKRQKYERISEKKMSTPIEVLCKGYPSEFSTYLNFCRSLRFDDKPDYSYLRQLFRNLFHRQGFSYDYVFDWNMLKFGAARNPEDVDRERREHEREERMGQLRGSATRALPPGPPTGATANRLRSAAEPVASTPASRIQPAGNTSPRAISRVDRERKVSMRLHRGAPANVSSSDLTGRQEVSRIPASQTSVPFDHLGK
Experiment [5] deals with Casein kinase I. In words: Inhibition of CK1 (unknown origin). Format: protein assay, Homo sapiens.

Ki and IC50 data for ten compounds are collected here from ChEMBL document CHEMBL4334470, “Small molecule modulators targeting protein kinase CK1 and CK2” (Eur J Med Chem, 2019).

T1 sequence (P68400 whole entry): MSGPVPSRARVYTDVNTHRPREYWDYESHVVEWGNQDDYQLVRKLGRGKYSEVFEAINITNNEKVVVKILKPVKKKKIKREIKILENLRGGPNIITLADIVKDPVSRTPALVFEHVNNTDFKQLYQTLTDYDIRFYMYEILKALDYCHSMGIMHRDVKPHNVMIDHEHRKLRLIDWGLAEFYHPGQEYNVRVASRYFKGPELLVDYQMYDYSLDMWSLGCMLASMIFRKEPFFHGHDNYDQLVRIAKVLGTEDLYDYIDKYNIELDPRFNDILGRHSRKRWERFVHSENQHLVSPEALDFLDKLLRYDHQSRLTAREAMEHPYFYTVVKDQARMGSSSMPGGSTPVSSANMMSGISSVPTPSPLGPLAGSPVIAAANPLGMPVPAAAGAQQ

In the case of `O=c1c2c(O)cccc2oc2c([N+](=O)[O-])ccc(O)c12`, the affinity in experiment [1] corresponds to a Ki of 780 nM.
Turning to `O=C(O)/C=C/c1cc(Br)c(Br)c(Br)c1Br`, the Ki in experiment [2] was 77 nM.
Compound `Cc1c(Br)c(=O)oc2c(Br)c(O)ccc12` registered a Ki in experiment [1] of 60 nM.
Take `COc1cc(OC)c(/C=C2\C(=O)Nc3ccccc32)c(OC)c1`: the IC50 is 16000 nM in experiment [3] and 1000 nM in experiment [4].
On to `CCCCCCCCCCCC1=C(O)C(=O)C2=C(OC(N)=C(C#N)C2[N+](=O)[O-])C1=O` (stereo unspecified), for which the Ki in experiment [1] worked out at 220 nM.
For `O=c1oc2c(Br)c(O)ccc2c2ccc(O)cc12`, in experiment [1], the inhibition constant (Ki) is 7 nM.
The compound `NCCNS(=O)(=O)c1ccc(Cl)c2ccncc12` had an IC50 in experiment [5] of 9500 nM.
Consider `O=C1c2c(O)cccc2C(=O)c2c([N+](=O)[O-])ccc(O)c21`, for which the Ki in experiment [1] was 800 nM.
Same read-out and setting: the result for `O=c1oc2c(O)c(O)cc3c(=O)oc4c(O)c(O)cc1c4c23` [ELLAGIC ACID] reads 20 nM.
The same measure, in the same setting: as for `O=c1c(O)c(-c2ccc(O)c(O)c2)oc2cc(O)ccc12` [FISETIN], the figure is 350 nM.
